Our source for the Ki values is patent publication US8580811B2 (Ligand Pharmaceuticals Incorporated, priority 2005, dated 2013).

The test addresses T1, human AR (Homo sapiens, UniProt P10275).
T1 construct: expressed in transfected cells; host or cells: COS-1 cells
T1 sequence (P10275 1-920): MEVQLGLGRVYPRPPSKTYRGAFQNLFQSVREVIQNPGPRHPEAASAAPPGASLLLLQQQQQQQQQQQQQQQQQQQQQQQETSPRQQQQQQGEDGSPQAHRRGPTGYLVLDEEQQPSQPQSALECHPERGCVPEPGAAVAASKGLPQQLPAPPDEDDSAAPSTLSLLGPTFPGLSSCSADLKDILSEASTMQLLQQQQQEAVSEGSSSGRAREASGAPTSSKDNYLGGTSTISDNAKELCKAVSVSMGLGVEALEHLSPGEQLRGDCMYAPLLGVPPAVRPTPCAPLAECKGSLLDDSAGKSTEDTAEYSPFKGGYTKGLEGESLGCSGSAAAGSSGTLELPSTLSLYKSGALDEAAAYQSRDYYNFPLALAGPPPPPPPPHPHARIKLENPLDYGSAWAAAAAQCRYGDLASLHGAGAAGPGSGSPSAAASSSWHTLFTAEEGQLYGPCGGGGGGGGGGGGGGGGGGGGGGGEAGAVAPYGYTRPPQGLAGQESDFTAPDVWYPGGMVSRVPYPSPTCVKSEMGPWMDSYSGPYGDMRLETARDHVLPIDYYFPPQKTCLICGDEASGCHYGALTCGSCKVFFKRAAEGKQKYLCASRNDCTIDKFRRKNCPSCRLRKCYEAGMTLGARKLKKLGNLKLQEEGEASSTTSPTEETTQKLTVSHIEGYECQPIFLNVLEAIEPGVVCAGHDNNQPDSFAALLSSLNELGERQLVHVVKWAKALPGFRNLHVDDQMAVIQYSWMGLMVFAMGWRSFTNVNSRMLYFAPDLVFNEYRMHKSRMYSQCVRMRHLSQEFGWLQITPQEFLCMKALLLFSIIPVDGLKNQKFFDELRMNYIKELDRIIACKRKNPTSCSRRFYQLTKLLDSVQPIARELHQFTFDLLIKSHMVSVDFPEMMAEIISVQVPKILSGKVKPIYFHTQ
As to the kind of experiment: IR Binding Assay: whole cell competitive binding of test compounds against 3H-DHT in COS-1 cells transfected with pRShAR. As for the experimental part: For the whole cell binding assay, COS-1 cells in 96-well microtiter plates including DMEM-10% FBS were transfected as described above with the following plasmid DNA: pRShAR (2 ng/well), pRS-β-Gal (50 ng/well) and pGEM (48 ng/well). Six hours after transfection, media was removed, the cells were washed with PBS and fresh media was added. The next day, the media was changed to DMEM-serum free to remove any endogenous ligand that might be complexed with the receptor in the cells.
After 24 hours in serum-free media, either a saturation analysis to determine the Kd for tritiated dihydrotestosterone (^3H-DHT) on human AR or a competitive binding assay to evaluate the ability of test compounds to compete with ^3H-DHT for AR was performed. […] For the competitive binding assay, media including 1 nM ^3H-DHT and test compounds in concentrations ranging from 10^−10 to 10^−6 M were added to the cells. Three replicates were used for each sample. After three hours at 37° C., an aliquot of the total binding media at each concentration of ^3H-DHT was removed to estimate the amount of free ^3H-DHT. The remaining media was removed, the cells were washed three times with PBS to remove unbound ligand, and cells were lysed with a Triton X-100-based buffer. The lysates were assayed for amount of bound ^3H-DHT and β-Gal activity using a scintillation counter or spectrophotometer, respectively.
For the saturation analyses, the difference between the total binding and the nonspecific binding, normalized by the β-Gal rate, was defined as specific binding. The specific binding was evaluated by Scatchard analysis to determine the Kd for ^3H-DHT. See e.g., D. Rodbard, “Mathematics and statistics of ligand assays: an illustrated guide” In: J. Langon and J. J. Clapp, eds., Ligand Assay, Masson Publishing U.S.A., Inc., New York, pp. 45-99, (1981), the disclosure of which is herein incorporated by reference. For the competition studies, the data was plotted as the amount of ^3H-DHT (% of control in the absence of test compound) remaining over the range of the dose-response curve for a given compound. […] The Ki values were determined by application of the Cheng-Prusoff equation to the IC50 values, where:
[formula] After correcting for non-specific binding, IC50 values were determined. […] The IC50 value was determined graphically from a log-logit plot of the data. The Ki values were determined by application of the Cheng-Prusoff equation to the IC50 values, the labeled ligand concentration and the Kd of the labeled ligand. see e.g., Cheng, Y. C. and Prusoff, W. H. Biochem. Pharmacol. 22:3099 (1973).

Some results are limits rather than exact numbers.

In general, Ki refers to the equilibrium dissociation constant of an inhibitor or competing ligand from its target. Higher therefore signals weaker binding. Compound `O=c1cc(Cl)c2c3c(ccc2[nH]1)N(CC(F)(F)F)C1CCCC31` (racemic) [Compound 126, (±)-9-Chloro-3-(2,2,2-trifluoro-ethyl)-1,2-trimethylene-1,2,3,6-tetrahydro-pyrrolo[3,2-f]-quinolin-7-one] came in with a Ki below 5 nM.
To `CC1c2c(ccc3[nH]c(=O)cc(Cl)c23)N(CC(F)(F)F)C1C` (racemic) [Compound 127, (±)-9-Chloro-1,2-dimethyl-3-(2,2,2-trifluoro-ethyl)-1,2,3,6-tetrahydro-pyrrolo[3,2-f]quinolin-7-one] belongs 5 to 10 nM; to `CCC1C(C)c2c(ccc3[nH]c(=O)cc(Cl)c23)N1CC(F)(F)F` (racemic) [Compound 128, (±)-9-Chloro-2-ethyl-1-methyl-3-(2,2,2-trifluoro-ethyl)-1,2,3,6-tetrahydro-pyrrolo[3,2-f]quinolin-7-one], above 10 nM.
The value for `CCC1c2c(ccc3[nH]c(=O)cc(Cl)c23)N(CC(F)(F)F)C1C` (racemic) [Compound 129, (±)-9-Chloro-1-ethyl-2-methyl-3-(2,2,2-trifluoro-ethyl)-1,2,3,6-tetrahydropyrrolo[3,2-f]-quinolin-7-one] was above 10 nM; that for `CC1c2c(ccc3[nH]c(=O)cc(Cl)c23)N(CC(F)(F)F)C1c1ccccc1` (racemic) [Compound 130, (±)-9-Chloro-1-methyl-2-phenyl-3-(2,2,2-trifluoro-ethyl)-1,2,3,6-tetrahydro-pyrrolo[3,2-f]-quinolin-7-one] was 5 to 10 nM.
To `CC1Cc2c(ccc3[nH]c(=O)cc(Cl)c23)N1CC(F)(F)F` (racemic) [Compound 131, (±)-9-Chloro-2-methyl-3-(2,2,2-trifluoro-ethyl)-1,2,3,6-tetrahydropyrrolo[3,2-f]quinolin-7-one] belongs above 10 nM.
`CC1CN(CC(F)(F)F)c2ccc3[nH]c(=O)cc(Cl)c3c21` (racemic) [Compound 132, (±)-9-Chloro-1-methyl-3-(2,2,2-trifluoro-ethyl)-1,2,3,6-tetrahydro-pyrrolo[3,2-f]quinolin-7-one]: the Ki was below 5 nM.
To `O=c1cc(Cl)c2c3c(ccc2[nH]1)N(CC(F)(F)F)C1CCCCC31` (racemic) [Compound 133, (±)-9-Chloro-1,2-tetramethylene-3-(2,2,2-trifluoro-ethyl)-1,2,3,6-tetrahydro-pyrrolo[3,2-f]quinolin-7-one] belongs below 5 nM; to `CCN1CC(C)c2c1ccc1[nH]c(=O)cc(Cl)c21` (racemic) [Compound 134, (±)-9-Chloro-3-ethyl-1-methyl-1,2,3,6-tetrahydro-pyrrolo[3,2-f]quinolin-7-one], below 5 nM; to `CCN1c2ccc3[nH]c(=O)cc(Cl)c3c2C(C)C1C` (racemic) [Compound 135, (±)-9-Chloro-1,2-dimethyl-3-ethyl-1,2,3,6-tetrahydro-pyrrolo[3,2-f]quinolin-7-one], 5 to 10 nM.
As to `CC1c2c(ccc3[nH]c(=O)cc(Cl)c23)N(C)C1C` (racemic) [Compound 136, (±)-9-Chloro-1,2,3-trimethyl-1,2,3,6-tetrahydro-pyrrolo[3,2-f]quinolin-7-one], the inhibitory constant (Ki) was above 10 nM.
To `CCCN1c2ccc3[nH]c(=O)cc(Cl)c3c2C(C)C1C` (racemic) [Compound 137, (±)-9-Chloro-1,2-dimethyl-3-propyl-1,2,3,6-tetrahydro-pyrrolo[3,2-f]quinolin-7-one] belongs below 5 nM; to `CC1c2c(ccc3[nH]c(=O)cc(Cl)c23)N(CC(F)(F)Cl)C1C` (racemic) [Compound 138, (±)-9-Chloro-3-(2-chloro-2,2-difluoro-ethyl)-1,2-dimethyl-1,2,3,6-tetrahydro-pyrrolo[3,2-f]-quinolin-7-one], below 5 nM.
To `CC1c2c(ccc3[nH]c(=O)cc(Cl)c23)N(CCO)C1C` (racemic) [Compound 139, (±)-9-Chloro-1,2-dimethyl-3-(2-hydroxyethyl)-1,2,3,6-tetrahydro-pyrrolo[3,2-f]-quinolin-7-one] belongs above 10 nM.
The value for `CC1Nc2ccc3[nH]c(=O)cc(Cl)c3c2C1C` (racemic) [Compound 140, (±)-9-Chloro-1,2-dimethyl-1,2,3,6-tetrahydro-pyrrolo[3,2-f]quinolin-7-one] was above 10 nM; that for `CC1c2c(ccc3[nH]c(=O)cc(Cl)c23)N(CC(C)(C)C)C1C` (racemic) [Compound 141, (±)-9-Chloro-1,2-dimethyl-3-(2,2-dimethylpropyl)-1,2,3,6-tetrahydro-pyrrolo[3,2-f]quinolin-7-one] was 5 to 10 nM; that for `CC1c2c(ccc3[nH]c(=O)cc(Cl)c23)N(CCc2cccs2)C1C` (racemic) [Compound 142, (±)-9-Chloro-1,2-dimethyl-3-(2-thien-2-yl-ethyl)-1,2,3,6-tetrahydro-pyrrolo[3,2-f]-quinolin-7-one] was below 5 nM.
For the compound `CC1c2c(ccc3[nH]c(=O)cc(Cl)c23)N(CC(F)F)C1C` (racemic) [Compound 143, (±)-9-Chloro-3-(2,2-difluoroethyl)-1,2-dimethyl-1,2,3,6-tetrahydro-pyrrolo[3,2-f]quinolin-7-one], the inhibitory constant (Ki) lay within 5 to 10 nM.
To `CC1c2c(ccc3[nH]c(=O)cc(Cl)c23)N(Cc2ccccc2)C1C` (racemic) [Compound 144, (±)-9-Chloro-1,2-dimethyl-3-phenylmethyl-1,2,3,6-tetrahydro-pyrrolo[3,2-f]quinolin-7-one] belongs 5 to 10 nM; to `CC1c2c(ccc3[nH]c(=O)cc(Cl)c23)N(CCC(F)(F)F)C1C` (racemic) [Compound 145, (±)-9-Chloro-1,2-dimethyl-3-(3,3,3-trifluoropropyl)-1,2,3,6-tetrahydro-pyrrolo[3,2-f]-quinolin-7-one], below 5 nM.
To `CC1c2c(ccc3[nH]c(=O)cc(Cl)c23)N(CC(F)(F)F)C1c1cccc(Cl)c1` (racemic) [Compound 146, (±)-9-Chloro-2-(3-chlorophenyl)-1-methyl-3-(2,2,2-trifluoroethyl)-1,2,3,6-tetrahydro-pyrrolo[3,2-f]quinolin-7-one] belongs above 10 nM; to `CC1c2c(ccc3[nH]c(=O)cc(Cl)c23)N(CC(F)(F)F)C1c1ccc(C(F)(F)F)cc1` (racemic) [Compound 147, (±)-9-Chloro-1-methyl-2-(4-trifluoromethyl-phenyl)-3-(2,2,2-trifluoroethyl)-1,2,3,6-tetrahydro-pyrrolo[3,2-f]quinolin-7-one], above 10 nM; to `COc1ccc(C2C(C)c3c(ccc4[nH]c(=O)cc(Cl)c34)N2CC(F)(F)F)cc1` (racemic) [Compound 148, (±)-9-Chloro-2-(4-methoxy-phenyl)-1-methyl-3-(2,2,2-trifluoroethyl)-1,2,3,6-tetrahydro-pyrrolo[3,2-f]quinolin-7-one], 5 to 10 nM.
The value for `CC1c2c(ccc3[nH]c(=O)cc(Cl)c23)N(CC(F)(F)F)C1c1ccc(F)cc1` (racemic) [Compound 149, (±)-9-Chloro-2-(4-fluoro-phenyl)-1-methyl-3-(2,2,2-trifluoroethyl)-1,2,3,6-tetrahydro-pyrrolo[3,2-f]quinolin-7-one] was 5 to 10 nM.
